Reference: ChEMBL document CHEMBL1143431, “Synthesis and evaluation of pyrazolo[1,5-b]pyridazines as selective cyclin dependent kinase inhibitors” (Bioorg Med Chem Lett, 2008)

Tests used:
[1] = molecular target: Cyclin-dependent kinase 4 (Homo sapiens, UniProt P11802); test: Inhibition of CDK4 by radioactive glutathione plate-binding assay
[2] = molecular target: Glycogen synthase kinase-3 beta (Homo sapiens, UniProt P49841); test: Inhibition of GSK3-beta by scintillation proximity assay
[3] = molecular target: Cyclin-dependent kinase 2 (Homo sapiens, UniProt P24941); test: Inhibition of human CDK2 by HTRF assay
[4] = molecular target: Vascular endothelial growth factor receptor 2 (Homo sapiens, UniProt P35968); test: Inhibition of VEGFR2 by HTRF assay
[5] = Metabolic stability at mouse liver S9 fraction after 60 mins; assay type: ADME, subcellular; conditions: read-out: Stability
Mus musculus [6] = test: Dose normalized AUC in ip dosed mouse; assay type: ADME, organism-based; conditions: in vivo
Mus musculus [7] = test: Dose normalized AUC in orally dosed mouse; assay type: ADME, organism-based; conditions: in vivo, po

Chain of Cyclin-dependent kinase 4 (P11802 whole entry): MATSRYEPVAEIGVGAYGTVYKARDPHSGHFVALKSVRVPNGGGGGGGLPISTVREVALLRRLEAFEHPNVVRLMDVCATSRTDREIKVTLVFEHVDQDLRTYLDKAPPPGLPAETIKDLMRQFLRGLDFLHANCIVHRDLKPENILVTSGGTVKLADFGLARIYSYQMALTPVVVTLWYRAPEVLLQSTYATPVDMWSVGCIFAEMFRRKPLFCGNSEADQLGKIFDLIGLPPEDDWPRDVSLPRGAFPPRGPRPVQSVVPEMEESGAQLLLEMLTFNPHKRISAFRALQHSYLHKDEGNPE
Chain of Glycogen synthase kinase-3 beta (P49841 whole entry): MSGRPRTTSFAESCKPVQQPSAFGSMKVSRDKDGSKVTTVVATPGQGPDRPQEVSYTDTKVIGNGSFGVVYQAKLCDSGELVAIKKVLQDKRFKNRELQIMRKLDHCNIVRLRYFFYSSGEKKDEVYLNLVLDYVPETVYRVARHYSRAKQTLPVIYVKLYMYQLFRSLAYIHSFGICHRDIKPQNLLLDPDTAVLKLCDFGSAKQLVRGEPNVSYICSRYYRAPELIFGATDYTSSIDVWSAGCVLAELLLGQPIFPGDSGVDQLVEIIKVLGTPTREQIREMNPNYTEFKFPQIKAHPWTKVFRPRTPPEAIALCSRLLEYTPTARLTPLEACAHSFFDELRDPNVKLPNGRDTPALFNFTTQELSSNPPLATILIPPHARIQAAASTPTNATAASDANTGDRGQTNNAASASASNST
Chain of Vascular endothelial growth factor receptor 2 (P35968 whole entry): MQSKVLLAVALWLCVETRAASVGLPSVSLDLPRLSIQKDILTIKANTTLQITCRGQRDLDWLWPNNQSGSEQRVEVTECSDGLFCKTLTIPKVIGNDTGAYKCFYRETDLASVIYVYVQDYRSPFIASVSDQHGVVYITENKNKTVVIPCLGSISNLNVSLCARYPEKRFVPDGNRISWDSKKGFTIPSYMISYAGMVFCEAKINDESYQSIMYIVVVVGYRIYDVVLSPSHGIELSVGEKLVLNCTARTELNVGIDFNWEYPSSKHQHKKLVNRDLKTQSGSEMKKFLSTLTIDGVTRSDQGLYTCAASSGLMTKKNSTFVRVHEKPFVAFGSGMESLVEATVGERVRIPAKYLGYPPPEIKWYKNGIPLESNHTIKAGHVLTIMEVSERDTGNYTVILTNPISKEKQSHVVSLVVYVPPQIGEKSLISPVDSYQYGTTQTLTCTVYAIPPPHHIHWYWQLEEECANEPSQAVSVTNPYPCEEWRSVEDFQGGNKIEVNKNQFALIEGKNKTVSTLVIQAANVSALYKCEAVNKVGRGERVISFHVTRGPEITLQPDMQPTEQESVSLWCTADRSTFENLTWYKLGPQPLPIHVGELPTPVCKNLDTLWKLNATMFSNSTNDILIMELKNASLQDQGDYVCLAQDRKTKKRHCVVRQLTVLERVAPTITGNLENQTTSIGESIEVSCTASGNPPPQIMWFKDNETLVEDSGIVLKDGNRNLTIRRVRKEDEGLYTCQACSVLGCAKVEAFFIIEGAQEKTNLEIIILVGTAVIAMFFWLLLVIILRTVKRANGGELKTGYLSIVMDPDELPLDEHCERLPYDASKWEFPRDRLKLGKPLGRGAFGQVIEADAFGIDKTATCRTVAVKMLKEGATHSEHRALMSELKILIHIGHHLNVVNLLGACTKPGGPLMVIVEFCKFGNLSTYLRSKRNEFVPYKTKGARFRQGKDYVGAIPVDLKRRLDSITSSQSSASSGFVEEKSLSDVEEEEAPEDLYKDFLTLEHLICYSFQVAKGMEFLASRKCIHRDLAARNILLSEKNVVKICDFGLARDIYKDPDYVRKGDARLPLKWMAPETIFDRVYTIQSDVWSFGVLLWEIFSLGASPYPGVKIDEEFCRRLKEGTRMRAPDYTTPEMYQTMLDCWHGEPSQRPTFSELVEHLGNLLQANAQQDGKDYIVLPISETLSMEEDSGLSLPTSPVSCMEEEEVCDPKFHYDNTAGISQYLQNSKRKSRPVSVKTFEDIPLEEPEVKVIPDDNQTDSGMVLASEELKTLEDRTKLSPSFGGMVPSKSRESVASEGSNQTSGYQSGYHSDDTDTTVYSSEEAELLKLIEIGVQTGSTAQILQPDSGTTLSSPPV

| SMILES | IC50 [1] [nM] | IC50 [2] [nM] | IC50 [3] [nM] | other results |
| --- | --- | --- | --- | --- |
| CN1CCN(c2ccc(Nc3nccc(-c4cnn5nc(-c6ccc(F)cc6)ccc45)n3)cc2)CC1 | 26 | > 25000 | 740 | – |
| CCc1nn2ncccc2c1-c1ccnc(Nc2ccc(N3CCN(C)CC3)cc2)n1 | 25 | – | – | IC50 [4]: 63 nM |
| Fc1ccc(-c2ccc3c(-c4ccnc(NC5CC5)n4)cnn3n2)cc1 | 250 | > 32000 | – | – |
| O=[N+]([O-])c1cccc(Nc2nccc(-c3cnn4ncccc34)n2)c1 | 0.3 | – | 0.3 | – |
| c1cnn2ncc(-c3ccnc(NC4CC4)n3)c2c1 | 80 | – | – | remaining at 1 h [5]: 85%; IC50 [4]: > 20000 nM |
| C=Cc1ccc2c(-c3ccnc(NC4CC4)n3)cnn2n1 | 200 | 3200 | – | – |
| c1cc(-c2cnn3nc(NC4CCCC4)ccc23)nc(NC2CC2)n1 | 160 | 25000 | – | – |
| COc1ccc2c(-c3ccnc(NC4CC4)n3)cnn2n1 | 2000 | 25000 | – | – |
| N#Cc1ccc(Nc2nccc(-c3cnn4ncccc34)n2)cc1 | 25 | 5 | 2 | – |
| CCN(CC)CCNC(=O)c1cccc(Nc2nccc(-c3cnn4ncccc34)n2)c1 | 8 | 20 | 40 | – |
| CCc1nn2ncccc2c1-c1ccnc(NC2CC2)n1 [GW683768X] | 2000 | – | – | IC50 [4]: 3200 nM |
| O=[N+]([O-])c1ccc(Nc2nccc(-c3cnn4ncccc34)n2)cc1 | 8 | 5 | 3 | – |
| CCN(CC)Cc1cccc(Nc2nccc(-c3cnn4ncccc34)n2)c1 | 12 | 79 | 50 | – |
| Oc1ccc2c(-c3ccnc(NC4CC4)n3)cnn2n1 | 1300 | 25000 | – | – |
| O=C(O)c1ccc(Nc2nccc(-c3cnn4ncccc34)n2)cc1 | 790 | 50 | 40 | – |
| FC(F)(F)CNc1nccc(-c2cnn3ncccc23)n1 [GW683003X] | 1000 | > 32000 | 1000 | – |
| CN1CCN(c2ccc(Nc3nccc(-c4cnn5ncccc45)n3)cc2)CC1 | 12 | 200 | 100 | IC50 [4]: 400 nM |

| SMILES | IC50 [1] [nM] | IC50 [2] [nM] | IC50 [3] [nM] | other results |
| --- | --- | --- | --- | --- |
| CN(C)CC(O)COc1ccc(Nc2nccc(-c3cnn4nc(N5CCOCC5)ccc34)n2)cc1 (stereo not given) | 38 | – | – | AUC (Mus musculus [6]): > 7000 ng·kg·h/mg/mL; remaining at 1 h [5]: 46% |
| c1cc(-c2cnn3nc(N4CCOCC4)ccc23)nc(NC2CC2)n1 [GW708336X] | 400 | – | – | AUC (Mus musculus [7]): > 1000 ng·kg·h/mg/mL |
| c1cnn2ncc(-c3ccnc(NCCCN4CCOCC4)n3)c2c1 [GW683109X] | 3200 | – | – | – |
| Cc1nn2ncccc2c1-c1ccnc(NC2CC2)n1 | 800 | – | – | IC50 [4]: > 20000 nM |
| c1csc(-c2ccc3c(-c4ccnc(NC5CC5)n4)cnn3n2)c1 | 250 | > 32000 | – | – |
| c1cc(Nc2nccc(-c3cnn4ncccc34)n2)cc(-c2cocn2)c1 | 16 | 8 | 3 | – |
| Clc1ccc(CNc2nccc(-c3cnn4ncccc34)n2)cc1 [GW781673X] | 1000 | – | 1000 | – |
| CC(C)Oc1ccc2c(-c3ccnc(NC4CC4)n3)cnn2n1 | 1600 | 25000 | – | AUC (Mus musculus [7]): > 1000 ng·kg·h/mg/mL |
| NC(=O)c1ccc(Nc2nccc(-c3cnn4ncccc34)n2)cc1 | 160 | 20 | 16 | – |
| c1cc(-c2cnn3nc(N4CCCC4)ccc23)nc(NC2CC2)n1 | 500 | 25000 | – | – |
| CC(C)Oc1ccc2c(-c3ccnc(Nc4ccc(N5CCN(C)CC5)cc4)n3)cnn2n1 | 45 | 850 | 230 | – |
| CC(C)c1ccc(Nc2nccc(-c3cnn4ncccc34)n2)cc1 [GW805758X] | – | 16 | 40 | – |
| N#Cc1cccc(Nc2nccc(-c3cnn4ncccc34)n2)c1 [GW778894X] | 4 | – | 2 | – |
| CCCCc1nn2ncccc2c1-c1ccnc(NC2CC2)n1 | > 40000 | – | – | IC50 [4]: 2500 nM |
| CCCCc1nn2ncccc2c1-c1ccnc(Nc2ccc(N3CCN(C)CC3)cc2)n1 | 800 | – | – | IC50 [4]: 25 nM |
| Cc1nn2ncccc2c1-c1ccnc(Nc2ccc(N3CCN(C)CC3)cc2)n1 | 50 | – | – | IC50 [4]: 63 nM |
